Our source for the EC50 and inhibition values is US9745261B2, “Inhibitors of the MITF molecular pathway” (THE GENERAL HOSPITAL CORPORATION, priority 2013, dated 2017).

The subject of test [1] is MITF. As to the kind of experiment: qPCR assay for MITF expression in SK-MEL-5 cells. It counts as cell-based. The conditions noted are these: Homo sapiens; SK-MEL-5 melanoma cells, up to 35 μM. As to the method: SK-MEL-5 cells were treated with compounds for 24 hours. Next, cells were lysed with DNase I (Ambion, from Cell to CT Lysis Mix). Lysed cells were delivered to a RT-PCR plate (Ambion, Cells to CT RT Mix) and the plates were then processed for reverse transcription to create cDNA. qPCR was performed by transferring cDNA from the RT-PCR plate to a qPCR plate containing PCR master mix (Roche, Probes Master), FAM Taqman probe/primer set for the target gene (human MITF, Applied Biosystem, 4331182 Hs01117294_m1), VIC Taqman probe/primer set for a house keeping gene (human GAPDH, Applied Biosystems C10228) and water. qPCR plates were cycled using a real-time PCR instrument (Roche, Light Cycler). Using the instrument software, a cycle call was generated when each well enters log phase amplification (Ct). The delta Ct value was determined by subtracting the Ct value of the control gene (GAPDH) from the Ct value of the target gene (MITF) in each well. The delta delta Ct value of each compound treatment was determined by averaging the delta Ct values of the mock well on each plate and subtracting that average from the delta Ct value of each compound well. […]
• 10. […] The RT assay plates are incubated at 37° C. for 1 hour and the reverse transcriptase is inactivated by incubating the plates for 1 minute at 95° C. • 13. cDNA is stored at −80° C. until ready for qPCR analysis […]
For orientation: In qPCR the cycle at which signal appears reflects the starting amount.

In test [2] the target is T1, Adenosine A1 (Homo sapiens, UniProt P30542).
T1 construct: Eurofins Panlabs, Inc. (contract assay) 200510 (assay number)
As to the kind of experiment: Radioligand binding, Adenosine A1.

Test [3] addresses T2, Histamine H3 (Homo sapiens, UniProt Q9Y5N1).
T2 construct: Eurofins Panlabs, Inc
As to the kind of experiment: Radioligand binding, Histamine H3.

T2 sequence (Q9Y5N1 whole entry): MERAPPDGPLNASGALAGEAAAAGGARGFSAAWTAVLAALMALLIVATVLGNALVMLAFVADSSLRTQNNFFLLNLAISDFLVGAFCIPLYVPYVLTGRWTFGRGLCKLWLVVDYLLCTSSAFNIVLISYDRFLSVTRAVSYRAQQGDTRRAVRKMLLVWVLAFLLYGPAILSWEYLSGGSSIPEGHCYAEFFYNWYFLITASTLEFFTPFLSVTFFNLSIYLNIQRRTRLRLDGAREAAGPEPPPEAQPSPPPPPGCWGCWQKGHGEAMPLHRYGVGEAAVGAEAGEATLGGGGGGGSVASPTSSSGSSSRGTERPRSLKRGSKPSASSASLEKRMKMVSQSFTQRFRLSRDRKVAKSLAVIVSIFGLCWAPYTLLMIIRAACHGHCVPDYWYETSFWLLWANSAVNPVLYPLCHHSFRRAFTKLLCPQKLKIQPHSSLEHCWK
T1 sequence (P30542 whole entry): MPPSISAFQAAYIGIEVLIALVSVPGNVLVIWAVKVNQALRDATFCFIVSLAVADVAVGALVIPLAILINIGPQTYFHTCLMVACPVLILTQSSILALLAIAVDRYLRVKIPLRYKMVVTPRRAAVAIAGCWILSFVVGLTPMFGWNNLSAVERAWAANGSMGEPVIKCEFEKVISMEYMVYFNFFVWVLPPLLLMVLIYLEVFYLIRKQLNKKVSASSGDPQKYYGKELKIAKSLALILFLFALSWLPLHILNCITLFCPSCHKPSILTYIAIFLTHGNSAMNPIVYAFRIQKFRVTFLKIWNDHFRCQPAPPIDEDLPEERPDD

As for `NS(=O)(=O)c1ccc(NC2=CC(=O)c3ccccc3C2=O)cc1` [4-((1,4-dioxo-1,4-dihydronaphthalen-2-yl)amino)benzenesulfonamide], the EC50 – broadly, the midpoint of the concentration-response curve – in test [1] was 160 nM.
Regarding `NS(=O)(=O)c1ccc(NC2=CC(=O)c3ccccc3C2=O)cc1` [Example 1, 4-((1,4-Dioxo-1,4-dihydronaphthalen-2-yl)amino)benzenesulfonamide], the inhibition (commonly the change of the read-out against control, counted positive when it falls) at 10 µM was 46% in test [2] and -5% in test [3].
